Measurements from the NIST ThermoML archive (doi:10.1021/je501054c).
Where “and” joins values, the source holds several entries; their conditions need not be identical. Equal values may be shown once.

Columns and labels:
[1] = mn = molality of the nth substance listed, in mol/kg; conditions: 100 kPa, Liquid; for viscosity: Capillary tube (Ostwald / Ubbelohde) method; for mass density: Vibrating tube method
[2] = 100 kPa, Liquid; for mass density: Vibrating tube method

CCCCCCn1cc[n+](C)c1.[Cl-] [1-hexyl-3-methylimidazolium chloride] + CC#N
[1]
Conditions	mass density, 298.15 K [kg/m3]	mass density, 303.15 K [kg/m3]	mass density, 308.15 K [kg/m3]	mass density, 313.15 K [kg/m3]	viscosity, 298.15 K [mPa·s]
m1 = 0.0205	777.74	772.53	764.33	756.52	–
m1 = 0.022	–	–	–	–	0.3485
m1 = 0.041	778.81	773.62	765.43	757.67	–
m1 = 0.0461	–	–	–	–	0.3524
m1 = 0.06	779.78	774.61	766.44	758.72	–
m1 = 0.0622	–	–	–	–	0.3551
m1 = 0.0809	780.84	775.69	767.53	759.86	–
m1 = 0.0814	–	–	–	–	0.3589
m1 = 0.1002	781.8	776.66	768.53	760.89	–
m1 = 0.1057	–	–	–	–	0.3631
m1 = 0.1197	782.75	777.64	769.5	761.94	–
m1 = 0.123	–	–	–	–	0.367
m1 = 0.1374	783.62	778.51	770.4	762.83	–
m1 = 0.1423	–	–	–	–	0.3696
m1 = 0.1544	784.44	779.33	771.23	763.72	–
m1 = 0.1606	–	–	–	–	0.3741
m1 = 0.1788	785.56	780.48	772.4	764.93	–
m1 = 0.181	–	–	–	–	0.3776
m1 = 0.1969	786.4	781.33	773.26	765.84	–
m1 = 0.2045	–	–	–	–	0.3813

CCC[n+]1ccn(C)c1.[Br-] [1-methyl-3-propylimidazolium bromide] + CC#N
[1]
Conditions	mass density, 298.15 K [kg/m3]	mass density, 303.15 K [kg/m3]	mass density, 308.15 K [kg/m3]	mass density, 313.15 K [kg/m3]	viscosity, 298.15 K [mPa·s]
m1 = 0.0248	778.67	773.46	763.49	757.41	–
m1 = 0.0251	–	–	–	–	0.3488
m1 = 0.0422	–	–	–	–	0.3525
m1 = 0.0423	780.09	774.88	764.92	758.84	–
m1 = 0.0636	781.79	776.59	766.63	760.57	–
m1 = 0.0644	–	–	–	–	0.3573
m1 = 0.081	783.18	777.98	768.02	761.96	–
m1 = 0.0816	–	–	–	–	0.3607
m1 = 0.1036	784.95	779.74	769.8	763.74	–
m1 = 0.1051	–	–	–	–	0.3633
m1 = 0.123	786.44	781.24	771.31	765.27	–
m1 = 0.1245	–	–	–	–	0.3675
m1 = 0.1437	788.02	782.86	772.93	766.87	–
m1 = 0.1461	–	–	–	–	0.3724
m1 = 0.1636	789.52	784.35	774.44	768.39	–
m1 = 0.1667	–	–	–	–	0.3771
m1 = 0.1835	791.02	785.84	775.93	769.89	–
m1 = 0.1873	–	–	–	–	0.38
m1 = 0.2042	792.57	787.39	777.47	771.44	–
m1 = 0.2082	–	–	–	–	0.3844

CCCCCn1cc[n+](C)c1.[Br-] [1-pentyl-3-methylimidazolium bromide] + CC#N
[1]
Conditions	mass density, 298.15 K [kg/m3]	mass density, 303.15 K [kg/m3]	mass density, 308.15 K [kg/m3]	mass density, 313.15 K [kg/m3]	viscosity, 298.15 K [mPa·s]
m1 = 0.03	779.11	770.63	762.52	755.09	–
m1 = 0.0301	–	–	–	–	0.3532
m1 = 0.0509	780.82	772.34	764.26	756.83	–
m1 = 0.0511	–	–	–	–	0.3605
m1 = 0.0721	782.52	774.06	765.99	758.59	–
m1 = 0.0726	–	–	–	–	0.366
m1 = 0.1016	784.87	776.42	768.38	760.99	–
m1 = 0.1026	–	–	–	–	0.3724
m1 = 0.123	786.55	778.11	770.11	762.71	–
m1 = 0.1245	–	–	–	–	0.3782
m1 = 0.1434	788.15	779.71	771.7	764.33	–
m1 = 0.1455	–	–	–	–	0.3814
m1 = 0.1628	789.62	781.22	773.22	765.86	–
m1 = 0.1655	–	–	–	–	0.3873
m1 = 0.1944	792	783.62	775.67	768.32	–
m1 = 0.1983	–	–	–	–	0.3928
m1 = 0.211	793.26	784.87	776.92	769.58	–
m1 = 0.2155	–	–	–	–	0.3975
m1 = 0.2313	794.76	786.39	778.44	771.12	–
m1 = 0.2367	–	–	–	–	0.4016

CCCCCCn1cc[n+](C)c1.[Br-] [3-hexyl-1-methyl-1H-imidazolium bromide] + CC#N
[1]
Conditions	mass density, 298.15 K [kg/m3]	mass density, 303.15 K [kg/m3]	mass density, 308.15 K [kg/m3]	mass density, 313.15 K [kg/m3]	viscosity, 298.15 K [mPa·s]
m1 = 0.0208	778.37	773.15	763.14	754.27	–
m1 = 0.0209	–	–	–	–	0.353
m1 = 0.0449	780.33	775.12	765.12	756.27	–
m1 = 0.0451	–	–	–	–	0.3625
m1 = 0.0648	781.93	776.74	766.75	757.91	–
m1 = 0.0653	–	–	–	–	0.367
m1 = 0.0817	783.29	778.1	768.12	759.29	–
m1 = 0.0824	–	–	–	–	0.372
m1 = 0.1001	784.72	779.55	769.58	760.76	–
m1 = 0.1011	–	–	–	–	0.3774
m1 = 0.124	786.57	781.42	771.48	762.66	–
m1 = 0.1255	–	–	–	–	0.3842
m1 = 0.1424	788	782.85	772.92	764.1	–
m1 = 0.1445	–	–	–	–	0.3882
m1 = 0.1649	789.72	784.57	774.66	765.86	–
m1 = 0.1676	–	–	–	–	0.3937
m1 = 0.1832	791.1	785.97	776.06	767.28	–
m1 = 0.1866	–	–	–	–	0.3982
m1 = 0.2011	792.44	787.33	777.41	768.63	–
m1 = 0.2052	–	–	–	–	0.4022

CC#N [acetonitrile]
Conditions	viscosity [mPa·s]
[2], 298.15 K, Capillary tube (Ostwald / Ubbelohde) method	0.343

[2]
Conditions	mass density
298.15 K	776.65 kg/m3
303.15 K	771.43 kg/m3 and 768.14 kg/m3
308.15 K	761.45 kg/m3 [middle of 4 runs]
313.15 K	755.34 kg/m3 [middle of 4 runs]
